From patent publication US20250052749A1, “SYSTEMS AND METHODS OF SELECTING COMPOUNDS THAT INDUCE CONFORMATIONAL CHANGES IN MUTANT CEREBLON” (BRISTOL-MYERS SQUIBB COMPANY, priority 2021, published 2025)
Entries after “also recorded” stand apart in the source; their conditions may differ.

How the values were obtained:
P98A Cereblon-DDB1 = molecular target: T1, P98A Cereblon-DDB1 (Homo sapiens, UniProt Q96SW2, P98A); assay: cryo-EM of P98A mutant Cereblon saturated with drug along with Ikaros; settings: for conformation of P98A Cereblon in presence of drug (open/closed) / recruitment of Ikaros Zf 2-3 to P98A mutant Cereblon: result in words; for recruitment of Ikaros Zf 2-3 to P98A mutant Cereblon: FIG. 9
T1 construct: human cereblon (amino acids 5-442); ZZ-domain-6×His-thrombin site (cleaved yes); made in house; host or cells: SF9 insect cells (CRBN-DDB1, by 'as before'); E. coli BL21 (DE3) Star (Ikaros)
Experimental: Frozen 20 mg/mL cereblon-DDB1 complexes were thawed and diluted to 5 mg/mL with buffer containing 20 mM HEPES pH 7, 150 mM NaCl, 3 mM TCEP. Immediately prior to plunge-freezing in liquid ethane, samples are diluted 10-fold in the same buffer supplemented with 0.011% Lauryl Maltose-Neopentyl Glycol (LMNG) to limit complex dissociation. Quantifoil 300 mesh R1.2/1.3 UltrAuFoil Holey Gold Films were plasma cleaned for 7 seconds using a Solarus plasma cleaner (Gatan, Inc.) with a 75% nitrogen, 25% oxygen atmosphere at 15 W. Immediately prior to sample application, grids are further pre-treated with 4 μL solution containing 10 μM cereblon binding-deficient mutant Ikaros residues 140-196 Q146A G151N and blotted from behind with torn Whatman 1 filter paper. 4 μL dilute sample is applied, excess sample was blotted away for 4 s and vitrified by manual plunge freezing into a liquid ethane pool cooled by liquid nitrogen using a manual plunger in a 4° C. cold room >95% humidity. Samples containing IMiDs are prepared the same way, with 10× molar equivalent of drug yielding a buffer concentration 20 mM HEPES pH 7, 150 mM NaCl, 3 mM TCEP, <1% DMSO mixed 2 minutes prior to dilution and application to the grid. Similarly, Ikaros samples are prepared by incubation of 2-fold molar excess Ikaros 2 minutes prior to dilution and application to the grid.
Cryo-EM data were collected on a Thermo-Fisher Talos Arctica transmission electron microscope operating at […] using parallel illumination conditions. Micrographs were acquired using a Gatan K2 Summit direct electron detector, operated in electron counting mode applying a total electron exposure of […]. The Leginon data collection software was used to collect 2912 micrographs at 36,000× nominal magnification (1.15 Å/pixel at the specimen level) with a nominal defocus set to −1.5 μm. Variation from the nominally set defocus due to a ˜5% tilt in the stage gave rise to a defocus range (this tilt was not intentional and required service to correct). Stage movement was used to target the center of sixteen 1.2 μm holes for focusing, and an image shift was used to acquire high magnification images in the center of each of the sixteen targeted holes.

Cereblon = Cereblon (Homo sapiens, UniProt Q96SW2); assay: Cereblon binding affinity; settings: CELMoD affinity for Cereblon compared with Pomalidomide/IMiD
Cereblon-DDB1 [1] = molecular target: T2, Cereblon-DDB1 (Homo sapiens, UniProt Q96SW2); assay: cryo-EM population analysis of open/closed Cereblon conformers with saturating IMiD/CELMoD; set-up: human cereblon (amino acids 5-442); ZZ-domain-6×His-thrombin site (cleaved yes); made in house; host or cells: SF9 insect cells; settings: wild-type Cereblon-DDB1, saturating amount of drug, cryo-EM single-particle analysis
Experimental: (§1) Frozen 20 mg/mL cereblon-DDB1 complexes were thawed and diluted to 5 mg/mL with buffer containing 20 mM HEPES pH 7, 150 mM NaCl, 3 mM TCEP. Immediately prior to plunge-freezing in liquid ethane, samples are diluted 10-fold in the same buffer supplemented with 0.011% Lauryl Maltose-Neopentyl Glycol (LMNG) to limit complex dissociation. Quantifoil 300 mesh R1.2/1.3 UltrAuFoil Holey Gold Films were plasma cleaned for 7 seconds using a Solarus plasma cleaner (Gatan, Inc.) with a 75% nitrogen, 25% oxygen atmosphere at 15 W. Immediately prior to sample application, grids are further pre-treated with 4 μL solution containing 10 μM cereblon binding-deficient mutant Ikaros residues 140-196 Q146A G151N and blotted from behind with torn Whatman 1 filter paper. 4 μL dilute sample is applied, excess sample was blotted away for 4 s and vitrified by manual plunge freezing into a liquid ethane pool cooled by liquid nitrogen using a manual plunger in a 4° C. cold room >95% humidity. Samples containing IMiDs are prepared the same way, with 10× molar equivalent of drug yielding a buffer concentration 20 mM HEPES pH 7, 150 mM NaCl, 3 mM TCEP, <1% DMSO mixed 2 minutes prior to dilution and application to the grid. Similarly, Ikaros samples are prepared by incubation of 2-fold molar excess Ikaros 2 minutes prior to dilution and application to the grid. […]

Cereblon-DDB1 [2] = molecular target: T2, Cereblon-DDB1; assay: hydrogen-deuterium exchange mass spectrometry (HDX-MS) of Cereblon-DDB1 peptides; set-up: made in house; settings: compared with unliganded DDB1-Cereblon; result in words
Experimental: For peptide identification, differential HDX-MS experiments were conducted as previously described with a few modifications (Chalmers, M. J., et al. (2006). Probing protein ligand interactions by automated hydrogen/deuterium exchange mass spectrometry. Analytical Chemistry, 78(4), 1005-1014). Peptides were identified using tandem MS (MS/MS) with an Orbitrap mass spectrometer (Q Exactive, ThermoFisher). Product ion spectra were acquired in data-dependent mode with the top five most abundant ions selected for the product ion analysis per scan event. The MS/MS data files were submitted to Mascot (Matrix Science) for peptide identification. […] The MASCOT search was repeated against a decoy (reverse) sequence and ambiguous identifications were ruled out and not included in the HDX peptide set. […]
Mass spectrometric data were acquired using an Orbitrap mass spectrometer (Exactive, ThermoFisher). […] The intensity weighted mean m/z centroid value of each peptide envelope was calculated and subsequently converted into a percentage of deuterium incorporation. […] Statistical significance for the differential HDX data is determined by an unpaired t-test for each time point, a procedure that is integrated into the HDX Workbench software (Pascal, B. D., et al. (2012). HDX workbench: software for the analysis of H/D exchange MS data. Journal of the American Society for Mass Spectrometry, 23(9), 1512-1521.). […]

Ikaros/Cereblon/DDB1 = molecular target: T3, Ikaros/Cereblon/DDB1 (Homo sapiens, UniProt Q96SW2); assay: cryo-EM of drug-mediated Ikaros recruitment to Cereblon-DDB1; settings: wild-type Cereblon/DDB1, FIG. 4C; result in words
T3 construct: human cereblon (amino acids 5-442); ZZ-domain-6×His-thrombin site (cleaved yes); made in house; host or cells: SF9 insect cells (CRBN-DDB1); E. coli BL21 (DE3) Star (Ikaros)
Experimental: as §1

[3] = P98A mutant Cereblon, saturated with drug along with Ikaros

Row | Compound | particles adopting CRBN^closed conformation with Ikaros bound (P98A Cereblon-DDB1; [3]) [%] | conformation of P98A Cereblon in presence of drug (open/closed) (P98A Cereblon-DDB1; [3]) | recruitment of Ikaros Zf 2-3 to P98A mutant Cereblon (P98A Cereblon-DDB1) | improved affinity (Cereblon) | particles adopting CRBN^closed conformation (Cereblon-DDB1 [1]) [%] | change in solvent accessibility (HDX differential) upon addition of drug (Cereblon-DDB1 [2]) | recruitment of Ikaros ZF1-2-3 to CRBN^closed (Ikaros/Cereblon/DDB1)
1 | N#Cc1ccc(N2CCN(Cc3ccc(COc4cccc5c4CN([C@H]4CCC(=O)NC4=O)C5=O)cc3)CC2)c(F)c1 [Compound 2, (S)-4-(4-(4-(((2-(2,6-dioxopiperidin-3-yl)-1-oxoisoindolin-4-yl)oxy)methyl)benzyl)piperazin-1-yl)-3-fluorobenzonitrile] | 25 | can overcome this mutation | sufficiently recruits Ikaros Zf 2-3 | – | – | – | –
2 | Nc1cccc2c1C(=O)N(C1CCC(=O)NC1=O)C2=O (stereo not drawn) [Pomalidomide, reference compound] | – | exclusively substrate-free open conformers; also recorded: cannot close | insufficient | – | – | – | –
3 | O=C1CC[C@H](N2Cc3c(OCc4ccc(CN5CCOCC5)cc4)cccc3C2=O)C(=O)N1 [Compound 1, (S)-3-(4-((4-(morpholinomethyl)benzyl)oxy)-1-oxoisoindolin-2-yl)piperidine-2,6-dione] | – | – | – | approximately 20 fold | ~50 | affected solvency for both the sensor loop and residues within the Lon domain and HB | is recruited to CRBN^closed
